How the values were obtained:
[1] = molecular target: T1, α-Chymotrypsin (EC 3.4.21.1) from bovine pancreas, immobilized on thioester-derivatized glass beads (20.2 mg/g) (Bos taurus, UniProt P00766); assay: Hydrolysis of BzTyrOEt by α-chymotrypsin immobilized on thioester-glass beads (20.2 mg/g); type: biochemical; design: unit not given here; details: substrate BzTyrOEt; immobilized (20.2 mg/g)
T1 construct: purchased Miles Laboratories or Sigma Chemical Co; host or cells: bovine pancreas
Experimental: (§1) α-Chymotrypsin (EC 3.4.21.1) from bovine pancreas was obtained as a lyophilized powder from Miles Laboratories or Sigma Chemical Co. and used without further purification. All chemicals used were reagent grade or better.
(§2) Succinamidopropyl-derivatized glass was converted to the acyl chloride derivative by treatment with anhydrous thionyl chloride. Care was taken to prevent the introduction of water in each of these reaction steps. The reacion mixture was held at 70° C. for 1 hour. The solution was then cooled to 25° C., and excess thionyl chloride was drained from the beads, which were then rinsed thoroughly with dry dichloromethane. The beads were next covered with anhydrous 3-mercaptopropionic acid and again held at 70° C. for 1 hour. Following reaction, the excess acid was drained, and the derivatized beads were again washed with dichloromethane. […]
(§3) Hydrolysis of benzoly-L-tyrosine ethyl ester (BzTyrOEt) by α-chymotrypsin was assayed according to the method of Hummel, B. C. […] Reaction was initiated by addition of soluble enzyme to the reaction mixture, and reaction progress was monitored spectrophotometrically at 256 nm. […] Initial slopes were read directly from the recorder chart and kinetic constants were evaluated using a computer program to fit data directly to velocity versus substrate concentration curves.

[2] = molecular target: T2, α-Chymotrypsin (EC 3.4.21.1) from bovine pancreas, immobilized on thioester-derivatized glass beads (9.5 mg/g) (Bos taurus, UniProt P00766); assay: Hydrolysis of BzTyrOEt by α-chymotrypsin immobilized on thioester-glass beads (9.5 mg/g, after brief hydroxylamine treatment); type: biochemical; design: unit not given here; details: substrate BzTyrOEt; immobilized (9.5 mg/g)
T2 construct: purchased Miles Laboratories or Sigma Chemical Co; host or cells: bovine pancreas
Experimental: as §1, §2, §3

[3] = test system: CCOC(=O)[C@H](Cc1ccc(O)cc1)NC(=O)c1ccccc1; assay: purified protein, by the assay type; details: other: substrate BzTyrOEt

## CCOC(=O)[C@H](Cc1ccc(O)cc1)NC(=O)c1ccccc1 [BzTyrOEt, benzoly-L-tyrosine ethyl ester]
[1]
  kcat /Km (app): 0.9
[2]
  kcat /Km (app): 1.0

## α-Chymotrypsin (EC 3.4.21.1) from bovine pancreas, native soluble enzyme before immobilization (Bos taurus)
[3]; soluble enzyme before immobilization
  Km: 2.74 mM

## α-Chymotrypsin (EC 3.4.21.1) from bovine pancreas, soluble enzyme released by hydroxylamine (thioacylated, about three chains per molecule) (Bos taurus)
[3]; soluble enzyme released by hydroxylamine, pH 7.0
  Km: 3.35 mM
